Results reported in ChEMBL document CHEMBL4033624, “Synthesis and evaluation of adenosine containing 3-arylfuran-2(5H)-ones as tyrosyl-tRNA synthetase inhibitors” (Eur J Med Chem, 2017).
In brackets after ≈: the same amount, converted by molar mass.

Experiments:
Staphylococcus aureus = assay: Antibacterial activity against Staphylococcus aureus ATCC 6538 after 4 to 5 hrs by MTT assay; assay type: functional
Pseudomonas aeruginosa = assay: Antibacterial activity against Pseudomonas aeruginosa ATCC 9027 after 4 to 5 hrs by MTT assay; assay type: functional
[1] = Inhibition of TyrRS (unknown origin) expressed in Escherichia coli using L-[ring-3,5-3H] tyrosine as substrate preincubated for 10 mins followed by substrate addition measured by liquid scintillation counting method; parameters: species or system Bacteria
Escherichia coli = assay: Antibacterial activity against Escherichia coli ATCC 8739 after 4 to 5 hrs by MTT assay; assay type: functional

| SMILES | MIC50 (Staphylococcus aureus) [µg/mL] | MIC50 (Pseudomonas aeruginosa) [µg/mL] | IC50 [1] [µM] | MIC50 (Escherichia coli) [µg/mL] |
| --- | --- | --- | --- | --- |
| CCOc1ccc(C2=C(OCC(=O)NC[C@H]3O[C@@H](n4cnc5c(N)ncnc54)[C@H](O)[C@@H]3O)COC2=O)cc1OCC | > 100 | > 100 | > 100 | > 100 |
| Nc1ncnc2c1ncn2[C@@H]1O[C@H](CNC(=O)c2cccc(Br)c2)[C@@H](O)[C@H]1O | > 100 | > 100 | 94.5 | > 100 |
| Nc1ncnc2c1ncn2[C@@H]1O[C@H](CNC(=O)COC2=C(c3ccc(Br)cc3)C(=O)OC2)[C@@H](O)[C@H]1O | 75.1 (≈ 134 µM) | 40.5 (≈ 72.1 µM) | 29.1 | 46.6 (≈ 83 µM) |
| CC1(C)O[C@@H]2[C@H](O1)[C@@H](CNC(=O)c1cccc(Br)c1)O[C@H]2n1cnc2c(N)ncnc21 | > 100 | > 100 | > 100 | > 100 |
| COc1ccc(C2=C(OCC(=O)NC[C@H]3O[C@@H](n4cnc5c(N)ncnc54)[C@H](O)[C@@H]3O)COC2=O)cc1OC | > 100 | > 100 | > 100 | > 100 |
| CCOc1ccc(C2=C(OCC(=O)NC[C@H]3O[C@@H](n4cnc5c(N)ncnc54)[C@@H]4OC(C)(C)O[C@@H]43)COC2=O)cc1OCC | > 100 | > 100 | > 100 | > 100 |
| Nc1ncnc2c1ncn2[C@@H]1O[C@H](CNC(=O)COC2=C(c3ccc(Cl)cc3Cl)C(=O)OC2)[C@@H](O)[C@H]1O | 55.4 (≈ 100 µM) | 33.6 (≈ 60.9 µM) | 26.1 | 29.4 (≈ 53.3 µM) |
| O=C(O)c1cn(C2CC2)c2cc(N3CCNCC3)c(F)cc2c1=O [CIPROFLOXACIN] |  | 0.64 (≈ 1.93 µM) |  | 0.1 (≈ 0.302 µM) |
| CC1(C)S[C@@H]2[C@H](NC(=O)Cc3ccccc3)C(=O)N2[C@H]1C(=O)[O-].[Na+] [PENICILLIN G SODIUM] | 0.57 |  |  |  |

Results, then the compound that gave them:

| MIC50 (Staphylococcus aureus) [µg/mL] | MIC50 (Pseudomonas aeruginosa) [µg/mL] | IC50 [1] [µM] | MIC50 (Escherichia coli) [µg/mL] | SMILES |
| --- | --- | --- | --- | --- |
| 30.3 (≈ 54.4 µM) | 25.6 (≈ 46 µM) | 24.3 | 15.8 (≈ 28.4 µM) | CC1(C)O[C@@H]2[C@H](O1)[C@@H](CNC(=O)COC1=C(c3ccccc3Cl)C(=O)OC1)O[C@H]2n1cnc2c(N)ncnc21 |
| 72.7 (≈ 145 µM) | 47.4 (≈ 94.7 µM) | 31.7 | 39.2 (≈ 78.3 µM) | Nc1ncnc2c1ncn2[C@@H]1O[C@H](CNC(=O)COC2=C(c3ccc(F)cc3)C(=O)OC2)[C@@H](O)[C@H]1O |
| > 100 | > 100 | > 100 | > 100 | CC1(C)O[C@@H]2[C@H](O1)[C@@H](CNC(=O)COC1=C(c3ccc(F)cc3)C(=O)OC1)O[C@H]2n1cnc2c(N)ncnc21 |
| 39.6 (≈ 71.1 µM) | 21.4 (≈ 38.4 µM) | 22.7 | 20.3 (≈ 36.4 µM) | CC1(C)O[C@@H]2[C@H](O1)[C@@H](CNC(=O)COC1=C(c3ccc(Cl)cc3)C(=O)OC1)O[C@H]2n1cnc2c(N)ncnc21 |
| > 100 | > 100 | > 100 | > 100 | COc1ccc(C2=C(OCC(=O)NC[C@H]3O[C@@H](n4cnc5c(N)ncnc54)[C@@H]4OC(C)(C)O[C@@H]43)COC2=O)cc1OC |
| > 100 | > 100 | 92.6 | 98.6 (≈ 164 µM) | CC1(C)O[C@@H]2[C@H](O1)[C@@H](CNC(=O)COC1=C(c3ccc(Br)cc3)C(=O)OC1)O[C@H]2n1cnc2c(N)ncnc21 |
| > 100 | 82.8 (≈ 153 µM) | 56 | 83.6 (≈ 155 µM) | CC1(C)O[C@@H]2[C@H](O1)[C@@H](CNC(=O)COC1=C(c3cccc(F)c3)C(=O)OC1)O[C@H]2n1cnc2c(N)ncnc21 |
| > 100 | 90.9 (≈ 154 µM) | 83.8 | > 100 | CC1(C)O[C@@H]2[C@H](O1)[C@@H](CNC(=O)COC1=C(c3ccc(Cl)cc3Cl)C(=O)OC1)O[C@H]2n1cnc2c(N)ncnc21 |
| 90.7 (≈ 153 µM) | 63.7 (≈ 108 µM) | 33.4 | 60.2 (≈ 102 µM) | CC1(C)O[C@@H]2[C@H](O1)[C@@H](CNC(=O)COC1=C(c3ccc(Cl)c(Cl)c3)C(=O)OC1)O[C@H]2n1cnc2c(N)ncnc21 |
